Reference: patent publication US6090787A, “Antithrombotic agents” (Eli Lilly and Company, priority 1999, dated 2000)
Square brackets hold non-standard residues; d marks the D form. Peptide text beside a SMILES is read from it. dPip = O=C(O)[C@H]1CCCCN1; Sar = CNCC(=O)O

Tests used:
Human plasmin = target: T1, Human plasmin (Homo sapiens, UniProt P00747); test: Fibrinolytic protease selectivity, Kass, plasmin chromogenic assay; type: biochemical; conditions: apparent association constant
T1 construct: Human plasmin is purchased from Boehringer Mannheim; purchased Boehringer Mannheim, Indianapolis, Indiana
T1 sequence (P00747 581-810 limits assumed): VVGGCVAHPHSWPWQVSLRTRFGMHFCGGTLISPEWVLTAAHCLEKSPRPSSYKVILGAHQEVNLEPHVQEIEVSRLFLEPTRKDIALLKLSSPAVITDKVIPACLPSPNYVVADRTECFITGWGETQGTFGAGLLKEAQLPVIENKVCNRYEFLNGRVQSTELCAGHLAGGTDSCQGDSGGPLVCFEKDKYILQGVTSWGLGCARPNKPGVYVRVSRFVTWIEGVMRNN
T1 sequence (P00747 97-580 partner limits assumed): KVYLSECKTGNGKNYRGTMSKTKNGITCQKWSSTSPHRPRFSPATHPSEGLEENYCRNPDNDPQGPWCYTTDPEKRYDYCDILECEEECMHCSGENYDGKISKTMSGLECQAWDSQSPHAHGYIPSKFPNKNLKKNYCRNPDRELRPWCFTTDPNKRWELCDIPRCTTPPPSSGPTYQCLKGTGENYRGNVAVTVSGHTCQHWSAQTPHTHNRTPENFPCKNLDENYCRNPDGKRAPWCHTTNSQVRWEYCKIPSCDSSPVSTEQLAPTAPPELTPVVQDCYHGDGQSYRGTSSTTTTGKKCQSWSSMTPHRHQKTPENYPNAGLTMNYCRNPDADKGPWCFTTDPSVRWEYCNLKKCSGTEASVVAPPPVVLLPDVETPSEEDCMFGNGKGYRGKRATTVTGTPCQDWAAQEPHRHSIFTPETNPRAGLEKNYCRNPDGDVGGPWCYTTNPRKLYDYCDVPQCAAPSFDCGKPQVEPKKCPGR
Method: (§1) By substantially following the procedures described above for human thrombin, and using other human blood coagulation system serine proteases and proteases of the fibrinolytic system with the appropriate chromogenic substrates, identified below, selectivity of the compounds of the present invention with respect to the coagulation factor serine proteases and with respect to the fibrinolytic system serine proteases are evaluated as well as their substantial lack of interference with serine proteases of the fibrinolytic system. Thrombin inhibitors preferably should spare fibrinolysis induced by urokinase, tissue plasminogen activator (t-PA) and streptokinase. This would be important to the therapeutic use of such agents as an adjunct to streptokinase, t-PA or urokinase thrombolytic therapy and to the use of such agents as an endogenous fibrinolysis-sparing (with respect to t-PA and urokinase) antithrombotic agent. In addition to the lack of interference with the amidase activity of the fibrinolytic proteases, such fibrinolytic system sparing can be studied by the use of human plasma clots and their lysis by the respective fibrinolytic plasminogen activators.
(§2) Human plasmin is purchased from Boehringer Mannheim, Indianapolis, Indiana; nt-PA is purchased as single chain activity reference from American Diagnostica, Greenwich, Conn.; modified-t-PA6 (mt-PA6) is prepared at Eli Lilly and Company by procedure known in the art (See, Burck, et al., J. Biol. Chem., 265, […] (1990). Plasmin chromogenic substrate H--D--Val--Leu--Lys--p--nitroanilide and tissue plasminogen activator (t-PA) substrate H--D--Ile--Pro--Arg--p--nitroanilide are purchased from Kabi Vitrum, Stockholm, Sweden.

[1] = Index of bioavailability (% Relative Activity from plasma TT AUC, oral vs i.v.); type: in vivo; conditions: dose-adjusted AUC of plasma TT time course, p.o. vs i.v. bolus
Method: Plasma thrombin time (TT) and activated partial thromboplastin time (APTT) are measured with a fibrometer. Blood is sampled from a jugular catheter and collected in syringe containing sodium citrate (3.8%, 1 part to 9 parts blood). […] Parke Davis) at 37° C. For APTT, plasma (0.1 mL) and APTT solution (0.1 mL, Organon Teknika) are incubated for 5 minutes (37° C.) and CaCl2 (0.01 mL, 0.025 M) is added to start coagulation. Assays are done in duplicate and averaged. A measure of bioactivity, plasma thrombin time (TT), served as a substitute for the assay of parent compound on the assumption that increments in TT resulted from thrombin inhibition by parent only. The time course of the effect of the thrombin inhibitor upon TT is determined after i.v. bolus administration to anesthetized rats and after oral treatment of fasted conscious rats. Due to limitations of blood volume and the number of points required to determine the time course from time of treatment to the time when the response returned to pretreatment values, two populations of rats are used. Each sample population represented alternating sequential time points. The average TT over the time course is used to calculate area under the curve (AUC). The index of bioavailability is calculated by the formula shown below and is expressed as percent relative activity. The area under the curve (AUC) of the plasma TT time course is determined and adjusted for the dose. This index of bioavailability is termed "% Relative Activity" and is calculated as [formula] Compound solutions are prepared fresh daily in normal saline and are injected as a bolus or are infused starting 15 minutes before and continuing throughout the experimental perturbation which is 15 minutes in the arteriovenous shunt model and 60 minutes in the FeCl3 model of arterial injury and in the spontaneous thombosis model. Bolus injection volume is 1 mL/kg for i.v., and 5 mL/kg for p.o. and infusion volume is 3 mL/hr.

[2] = target: T2, tissue plasminogen activator (t-PA) (Homo sapiens, UniProt P00750); test: Fibrinolytic protease selectivity, Kass, t-PA chromogenic assay; type: biochemical; conditions: apparent association constant
T2 construct: purchased American Diagnostica, Greenwich, Conn
T2 sequence (P00750 36-562): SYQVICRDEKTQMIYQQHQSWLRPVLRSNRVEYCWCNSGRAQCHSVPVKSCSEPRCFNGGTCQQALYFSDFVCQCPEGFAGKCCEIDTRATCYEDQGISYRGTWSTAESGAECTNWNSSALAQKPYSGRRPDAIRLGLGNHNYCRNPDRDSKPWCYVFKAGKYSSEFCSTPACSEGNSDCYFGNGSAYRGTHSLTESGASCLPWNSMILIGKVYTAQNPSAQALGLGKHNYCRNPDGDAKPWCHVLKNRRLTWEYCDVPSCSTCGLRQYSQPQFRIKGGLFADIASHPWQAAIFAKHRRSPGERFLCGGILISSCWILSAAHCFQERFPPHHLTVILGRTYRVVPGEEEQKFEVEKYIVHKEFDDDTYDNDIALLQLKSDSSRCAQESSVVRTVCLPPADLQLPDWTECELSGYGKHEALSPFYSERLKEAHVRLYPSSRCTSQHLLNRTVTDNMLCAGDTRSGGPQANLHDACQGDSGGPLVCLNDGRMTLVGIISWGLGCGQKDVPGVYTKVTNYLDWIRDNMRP
Method: as §1, §2

human thrombin = target: T3, human thrombin (Homo sapiens, UniProt P00734); test: Inhibition of amidase activity of thrombin (Kass), chromogenic substrate; type: biochemical; conditions: apparent association constant, mean over a range of concentrations
T3 construct: purified human thrombin, Enzyme Research Laboratories; purchased Enzyme Research Laboratories, South Bend, Indiana
Method: The assay is carried out by mixing 50 μL buffer (0.03 M Tris, 0.15 M NaCl, pH 7.4) with 25 μL of bovine thrombin or human thrombin solution (0.21 mg/mL of thrombostat bovine thrombin, Parke-Davis, or purified human thrombin, Enzyme Research Laboratories, South Bend, Indiana, at about 8 NIH units/mL, in the same buffer) and 25 μL of test compound in a solvent (in 50% aqueous methanol, v:v). The 150 μL of an aqueous solution of the chromogenic substrate (at 0.25 mg/mL) are added and the rates of hydrolysis of the substrate are measured by monitoring the reactions at 405 nm for the release of p-nitroaniline. Standard curves are constructed by plotting free thrombin concentration against hydrolysis rate. The hydrolysis rates observed with test compounds are then converted to "free thrombin" values in the respective assays by use of the standard curves. The bound thrombin (bound to test compound) is calculated by subtracting the amount of free thrombin observed in each assay from the known initial amount of thrombin used in the assay. The amount of free inhibitor in each assay is calculated by subtracting the number of moles of bound thrombin from the number of moles of added inhibitor (test compound).
The Kass value is the hypothetical equilibrium constant for the reaction between thrombin and the test compound (I). [formula]
Kass is calculated for a range of concentrations of test compounds and the mean value is reported in units of liter per mole.

human plasma = test: Human plasma anticoagulation, activated partial thromboplastin time (APTT); conditions: concentration required to double the APTT, linear extrapolation
Method: Dog plasma and rat plasma is obtained from conscious mixed-breed hounds (either sex, Hazelton-LRE, Kalamazoo, Mich., U.S.A.) or from anesthetized male Sprague-Dawley rats (Harlan Sprague-Dawley, Inc., Indianapolis, Ind., U.S.A.) by venipuncture into 3.8 percent citrate. Fibrinogen is prepared from in-date ACD human blood as the fraction I-2 according to previous procedures and specifications. Smith, Biochem. J., 185, 1-11 (1980); and Smith, et al., Biochemistry, 11, 2958-2967 (1972). Human fibrinogen is also purchased as 98 percent pure/plasmin free from American Diagnostica, Greenwich, Conn. Coagulation reagents ACTIN, Thromboplastin, and Human plasma are from Baxter Healthcare Corp., Dade Division, Miami, Fla. Bovine thrombin from Parke-Davis ([…], Mich.) is used for coagulation assays in plasma.
Coagulation assay procedures are as previously described. Smith, et al., Thrombosis Research, 50, 163-174 (1988). A CoAScreener coagulation instrument (American LABor, Inc.) is used for all coagulation assay measurements. The prothrombin time (PT) is measured by adding 0.05 mL saline and 0.05 mL Thromboplastin-C reagent to 0.05 mL test plasma. The activated partial thromboplastin time (APTT) is measured by incubation of 0.05 mL test plasma with 0.05 mL Actin reagent for 120 seconds followed by 0.05 mL CaCl2 (0.02 M). The thrombin time (TT) is measured by adding 0.05 mL saline and 0.05 mL thrombin (10 NIH units/mL) to 0.05 mL test plasma. The compounds of formula I are added to human or animal plasma over a wide range of concentrations to determine prolongation effects on the APTT, PT, and TT assays. Linear extrapolations are performed to estimate the concentrations required to double the clotting time for each assay.

CN(CC(=O)N[C@H](C=O)CCCNC(=N)N)C(=O)[C@H]1CCCCN1.Cl.Cl [Example 1, D-homoprolyl-N-methylglycyl-L-argininal dihydrochloride] (H-[dPip]-[Sar]-Arg-aldehyde)
Enzyme Kass Plasmin (Human plasmin): 0.031 L/mol × 10^6 | % oral/i.v. activity (Rat) [1]: 37% | Enzyme Kass t-PA [2]: 0.0039 L/mol × 10^6 | Enzyme Kass Human Thrombin (human thrombin): 22 L/mol × 10^6 | Human Plasma Anticoagulation 2 × Clotting time APTT (human plasma): 2,800 ng/mL

CC(C)CCN(CC(=O)N[C@H](C=O)CCCN=C(N)N)C(=O)[C@H]1CCCCN1.Cl.Cl [Example 6, D--hPro--N(isoamyl)Gly--ArgH.2HCl]
Enzyme Kass Plasmin (Human plasmin): 0.059 L/mol × 10^6 | % oral/i.v. activity (Rat) [1]: 22% | Enzyme Kass t-PA [2]: 0.004 L/mol × 10^6 | Enzyme Kass Human Thrombin (human thrombin): 16 L/mol × 10^6 | Human Plasma Anticoagulation 2 × Clotting time APTT (human plasma): 3,200 ng/mL

Cl.Cl.N=C(N)NCCC[C@@H](C=O)NC(=O)CN(CCc1ccccc1)C(=O)[C@H]1CCCCN1 [Example 8, D-homoprolyl-N-(2-phenylethyl)glycyl-L-argininal dihydrochloride]
Enzyme Kass Plasmin (Human plasmin): 0.44 L/mol × 10^6 | % oral/i.v. activity (Rat) [1]: 17% | Enzyme Kass t-PA [2]: 0.009 L/mol × 10^6 | Enzyme Kass Human Thrombin (human thrombin): 87 L/mol × 10^6 | Human Plasma Anticoagulation 2 × Clotting time APTT (human plasma): 6,600 ng/mL
